Entries after “also recorded” stand apart in the source; their conditions may differ.
Legend:
[1] = tested on: soluble epoxide hydrolase (sEH); experiment: inhibition of soluble epoxide hydrolase; type: biochemical, human
Text: Epoxide hydrolases (“EH;” EC 3.3.2.3) are enzymes in the alpha beta hydrolase fold family that add water to 3 membered cyclic ethers termed epoxides. Soluble epoxide hydrolase (sEH) is an enzyme which in endothelial and smooth muscle cells converts EETs to dihydroxy derivatives called dihydroxyeicosatrienoic acids (DHETs). The cloning and sequence of the murine sEH is set forth in Grant et al., J. Biol. Chem. 268(23):17628-17633 (1993). The cloning, sequence, and accession numbers of the human sEH sequence are set forth in Beetham et al., Arch. Biochem. Biophys. 305(1): 197-201 (1993). The evolution and nomenclature of the gene is discussed in Beetham et al., DNA Cell Biol. 14(1):61-71 (1995). Unless otherwise specified, as used herein, the terms “soluble epoxide hydrolase” and “sEH” refer to human sEH. Derivatives of urea are transition state mimetics that form a preferred group of sEH inhibitors. […] Any particular urea derivative or other compound can be easily tested for its ability to inhibit sEH by standard assays, such as the one used in the Examples herein. […] The enzyme also can be detected based on the binding of specific ligands to the catalytic site which either immobilize the enzyme or label it with a probe such as luciferase, green fluorescent protein or other reagent. […]

[2] = metabolic stability; type: in vitro ADME
[3] = tested on: soluble epoxide hydrolase (sEH); conditions: cited from earlier work
[4] = tested on: porcine aortic VSM cells; conditions: 14,15-EET 2 μM, chalcone oxide with PDGF and exogenous EETs; cited from earlier work
[5] = tested on: spontaneously hypertensive rats; conditions: injection; cited from earlier work

## CCCCCCCCCCCCNC(=O)NC12CC3CC(CC(C3)C1)C2 [ADU, N-adamantyl-N′-dodecyl urea]
[1]
  activity as an inhibitor of sEH: particularly high activity
[2]
  metabolic stability: metabolically stable

## O=C(c1ccccc1)C1OC1c1ccc(-c2ccccc2)cc1 (stereo not drawn) [4-phenylchalcone oxide, reference compound]
[3]
  in vitro inhibition of epoxide hydrolases: potent
[4]
  PDGF-mediated DNA synthesis / mitogenesis: additive increase in mitogenesis

## O=C(NC1CCCCC1)NC1CCCCC1 [DCU, N,N′-dicyclohexylurea]
[5]
  systemic blood pressure: lowering of blood pressure; also recorded: lower systemic blood pressure

## CCCCCC1OC1C/C=C\C/C=C\C/C=C\CCCC(=O)O (stereo not drawn) [14,15-EET]
[4]
  PDGF-mediated DNA synthesis / mitogenesis: increase PDGF-mediated DNA synthesis

Reference: patent US20030139469A1, “Use of inhibitors of soluble epoxide hydrolase to inhibit vascular smooth muscle cell proliferation” (THE REGENTS OF THE UNIVERSITY OF CALIFORNIA, priority 2002, published 2003)
